Reference: ChEMBL document CHEMBL3044763, “Inhibitory Activities of Rhodanine Derivatives on Plant Growth” (Biosci Biotechnol Biochem, 1996)

Key:
Type in all cases: functional
[1] = tested on: Brassica rapa subsp. oleifera; assay: Growth inhibition of Brassica rapa subsp. oleifera assessed as chlorophyll b level at 3 x 10^-4 M after 7 days; design: scale not given: the % may be the effect or the level left
[2] = tested on: Brassica rapa subsp. oleifera; assay: Growth inhibition of Brassica rapa subsp. oleifera assessed as chlorophyll b level at 1 x 10^-4 M after 7 days; design: scale not given: the % may be the effect or the level left
[3] = tested on: Brassica rapa subsp. oleifera; assay: Growth inhibition of Brassica rapa subsp. oleifera assessed as chlorophyll a level at 3 x 10^-5 M after 7 days; design: scale not given: the % may be the effect or the level left
[4] = tested on: Brassica rapa subsp. oleifera; assay: Growth inhibition of Brassica rapa subsp. oleifera assessed as chlorophyll a level at 5 x 10^-5 M after 7 days; design: scale not given: the % may be the effect or the level left
[5] = tested on: Brassica rapa subsp. oleifera; assay: Growth inhibition of Brassica rapa subsp. oleifera assessed as total chlorophyll level at 5 x 10^-5 M after 7 days; design: scale not given: the % may be the effect or the level left
[6] = tested on: Brassica rapa subsp. oleifera; assay: Growth inhibition of Brassica rapa subsp. oleifera assessed as total chlorophyll level at 3 x 10^-5 M after 7 days; design: scale not given: the % may be the effect or the level left
[7] = tested on: Brassica rapa subsp. oleifera; assay: Growth inhibition of Brassica rapa subsp. oleifera assessed as total chlorophyll level at 1 x 10^-4 M after 7 days; design: scale not given: the % may be the effect or the level left
[8] = tested on: Brassica rapa subsp. oleifera; assay: Growth inhibition of Brassica rapa subsp. oleifera assessed as total chlorophyll level at 3 x 10^-4 M after 7 days; design: scale not given: the % may be the effect or the level left
[9] = tested on: Brassica rapa subsp. oleifera; assay: Growth inhibition of Brassica rapa subsp. oleifera assessed as root growth at 3 x 10^-5 M after 7 days
[10] = tested on: Brassica rapa subsp. oleifera; assay: Growth inhibition of Brassica rapa subsp. oleifera assessed as root growth at 5 x 10^-5 M after 7 days
[11] = tested on: Brassica rapa subsp. oleifera; assay: Growth inhibition of Brassica rapa subsp. oleifera assessed as root growth at 1 x 10^-4 M after 7 days
[12] = tested on: Brassica rapa subsp. oleifera; assay: Growth inhibition of Brassica rapa subsp. oleifera assessed as root growth at 3 x 10^-4 M after 7 days
[13] = tested on: Brassica rapa subsp. oleifera; assay: Growth inhibition of Brassica rapa subsp. oleifera assessed as chlorophyll b level at 3 x 10^-5 M after 7 days; design: scale not given: the % may be the effect or the level left
[14] = tested on: Brassica rapa subsp. oleifera; assay: Growth inhibition of Brassica rapa subsp. oleifera assessed as chlorophyll b level at 5 x 10^-5 M after 7 days; design: scale not given: the % may be the effect or the level left
[15] = tested on: Brassica rapa subsp. oleifera; assay: Growth inhibition of Brassica rapa subsp. oleifera assessed as chlorophyll a level at 1 x 10^-4 M after 7 days; design: scale not given: the % may be the effect or the level left
[16] = tested on: Brassica rapa subsp. oleifera; assay: Growth inhibition of Brassica rapa subsp. oleifera assessed as chlorophyll a level at 3 x 10^-4 M after 7 days; design: scale not given: the % may be the effect or the level left

## O=C([O-])COc1ccc(Cl)cc1Cl.[Na+]
[1]
  Activity: 1.68%
[2]
  Activity: 6.1%
[3]
  Activity: 17.82%
[4]
  Activity: 11.51%
[5]
  Activity: 16.35%
[6]
  Activity: 25.12%
[7]
  Activity: 18.67%
[8]
  Activity: 4.82%
[9]
  Root length: 3.3 mm
[10]
  Root length: 3.1 mm
[11]
  Activity: 2.6 mm
[12]
  Activity: 2.1 mm
[13]
  Activity: 7.32%
[14]
  Activity: 4.84%
[15]
  Activity: 12.57%
[16]
  Activity: 3.16%
